Consider three molecules from patent US10550144B2, “6-aryl-9-glycosylpurines and use thereof” (UNIVERZITA PALACKEHO V OLOMOUCI, priority 2014, dated 2020).

Read-outs that look alike come from different tables or passages of the source.

In data set [1] the test system is skin fibroblasts BJ and keratinocytes HaCaT. As to the kind of experiment: MTT in vitro cytotoxicity test on skin cells. In kind it is cell-based, human. The protocol:
MTT assay is a standard test of toxicity based on photometric measurement of the ability of metabolically active cells to reduce MTT (3-(4,5-dimethylthiazol-2-yl)-2,5-diphenyltetrazolium bromide). Using the assay, the effects of 72 hour treatments with several concentrations of the compounds (sixfold dilution, maximal concentration=50 microM) on viability of skin fibroblasts BJ and keratinocytes HaCaT were evaluated. About 5,000 cells were seeded per well of a 96-well plate 24 hours before the treatment. DMSO vehiculum was used as a negative control. After 72 hour treatment, new medium with MTT (Sigma, M2128) was added to a final concentration of 0.5 mg/ml. After 3 hours, medium was removed and resulting formazan in the cells was dissolved in DMSO. The absorbance was measured at 570 nm (640 nm reference wavelength). The IC50 values were calculated from the dose-response curves. 6-Benzylaminopurine riboside and 6-furfurylaminopurine riboside were used as positive controls they were toxic in the MTT test.

Data set [2] deals with Harpagophytum procumbens nodal explants. As to the kind of experiment: Micropropagation growth response with BAP, Harpagophytum procumbens. The settings on record: after 35 days in vitro, N = 12.
A further data set deals with Vaccinia virus. The settings on record: Masakatsu et al. 1977; cited from earlier work.
Data set [3] has as its system Gymnosporia buxifolia shoot-tip explants. As to the kind of experiment: Shoot-tip necrosis in in vitro cultures of Gymnosporia buxifolia. The settings on record: after 4 weeks of culture.
The test system of a further data set is Herpes simplex virus. The settings on record: Masakatsu et al. 1977; cited from earlier work.
Data set [4] deals with Amelanchier alnifolia nodal explants. Nature of the data set: Micropropagation growth response with BAP, Amelanchier alnifolia. The settings on record: after 35 days in vitro, N = 9.
The test system of data set [5] is Dais cotinifolia shoot-tip explants. Nature of the data set: Shoot multiplication and shoot-tip necrosis in shoot cultures of Dais cotinifolia. The data set is classed as in vivo. The settings on record: after 8 weeks of culture. The protocol:
Explants were washed thoroughly with 0.1% (v/v) of Tween® 20 for 2 min, and decontaminated with 70% ethanol for 15 sec followed by 0.2% aqueous HgCl2 for 10 min. The explants were rinsed five times with sterile distilled water. […] Each value was presented as the mean±standard error, with three replicates; each replicate consisting of 15 explants per treatment.

Consider `OC[C@H]1OC(n2cnc3c(NCc4ccccc4)ncnc32)[C@H](O)[C@@H]1O` (stereo partly drawn) [6-benzylaminopurin9-ribosylpurine], for which the “toxicity in the MTT test” value in data set [1] is recorded as “toxic”. Further, the IC50 in data set [1] (MTT, 72 hour treatment, maximal concentration 50 microM, BJ and HaCaT, table does not separate the cell lines) is no more than 3000 nM.
As for `Cc1cccc(CNc2ncnc3c2ncn3[C@@H]2O[C@H](CO)[C@@H](O)[C@@H]2O)c1` [Example 3CH3BAPA, 6-(3-methylbenzylamino)-9-β-D-arabinofuranosylpurine], the “Fresh weight (g) mean SE” value stood at 0.8607 ± 0.1884 g in data set [2] (5 μM compound with 10 μM BAP); 1.0523 ± 0.2439 g in data set [2] (10 μM compound with 10 μM BAP); 0.8456 ± 0.1339 g in data set [2] (20 μM compound with 10 μM BAP); 1.1419 ± 0.213 g in data set [2] (30 μM compound with 10 μM BAP); 0.249 ± 0.0594 g in data set [4] (5 μM compound with 10 μM BAP); 0.349 ± 0.1025 g in data set [4] (10 μM compound with 10 μM BAP). Also, the results for the “Fresh weight (g) mean SE” value in data set [4] (20 μM compound with 10 μM BAP) and in data set [4] (30 μM compound with 10 μM BAP) were 0.563 ± 0.0729 g and 0.335 ± 0.0877 g, respectively. The “Shoot length (mm) mean SE” value in data set [2] (5 μM compound with 10 μM BAP) is 28.6 ± 4.397 mm; in data set [2] (10 μM compound with 10 μM BAP) it was 45.8 ± 7.094 mm; in data set [2] (20 μM compound with 10 μM BAP) it was 27 ± 3.531 mm; in data set [2] (30 μM compound with 10 μM BAP) it was 40.6 ± 4.831 mm; in data set [4] (5 μM compound with 10 μM BAP) it was 14.11 ± 1.670 mm; in data set [4] (10 μM compound with 10 μM BAP), 18.89 ± 2.288 mm. The results for the “Shoot length (mm) mean SE” value in data set [4] (20 μM compound with 10 μM BAP) and in data set [4] (30 μM compound with 10 μM BAP) were 16.22 ± 1.730 mm and 18.33 ± 3.122 mm, respectively. Further, the “Shoot no. mean SE” value turned out to be 2.8 ± 0.573 in data set [2] (5 μM compound with 10 μM BAP); 2.6 ± 0.340 in data set [2] (10 μM compound with 10 μM BAP); 2.3 ± 0.423 in data set [2] (20 μM compound with 10 μM BAP); 3.8 ± 0.593 in data set [2] (30 μM compound with 10 μM BAP); 7.6 ± 2.10 in data set [4] (5 μM compound with 10 μM BAP); 10.6 ± 2.75 in data set [4] (10 μM compound with 10 μM BAP). Moreover, the “Shoot no. mean SE” value in data set [4] (20 μM compound with 10 μM BAP) is 13.7 ± 2.06; in data set [4] (30 μM compound with 10 μM BAP), 11.6 ± 2.99. The “activity in killing Vaccinia virus” value with Vaccinia virus is given as “No effect”. Also, the “STN [%] (shoot-tip necrosis)” value in data set [3] (5 μM in MS medium) is listed as 53.3 ± 0.24d %; in data set [3] (10 μM in MS medium), 40.0 ± 0.20fg %; in data set [3] (20 μM in MS medium), 22.6 ± 0.28hi %; in data set [3] (30 μM in MS medium) it was 13.3 ± 0.24j %; in data set [5] (5 μM in MS medium) it was 52.2 ± 0.89b %; in data set [5] (10 μM in MS medium), 50.0 ± 0.75bc %. Moreover, the “STN [%] (shoot-tip necrosis)” value in data set [5] (20 μM in MS medium) is 45.5 ± 0.95d %; in data set [5] (30 μM in MS medium), 31.3 ± 1.12ef %. Further, the “Shoot length [cm]” value in data set [3] (5 μM in MS medium) was determined as 1.36 ± 0.27bc cm; in data set [3] (10 μM in MS medium), 1.82 ± 0.17b cm; in data set [3] (20 μM in MS medium) it was 3.30 ± 0.14a cm; in data set [3] (30 μM in MS medium), 3.00 ± 0.11a cm; in data set [5] (5 μM in MS medium) it was 1.42 ± 0.21bc cm; in data set [5] (10 μM in MS medium) it was 1.86 ± 0.14ab cm. Besides, the results for the “Shoot length [cm]” value in data set [5] (20 μM in MS medium) and in data set [5] (30 μM in MS medium) were 1.94 ± 0.09ab cm and 2.26 ± 0.22a cm, respectively. Moreover, the “Shoots [explant^−1] […]” value was 1.0 ± 0.0a explant^−1 in data set [3] (5 μM in MS medium); 1.0 ± 0.0a explant^−1 in data set [3] (10 μM in MS medium); 1.0 ± 0.0a explant^−1 in data set [3] (20 μM in MS medium); 1.0 ± 0.0a explant^−1 in data set [3] (30 μM in MS medium); 1.0 ± 0.00c explant^−1 in data set [5] (5 μM in MS medium); 1.0 ± 0.00c explant^−1 in data set [5] (10 μM in MS medium). Moreover, the entries for the “Shoots [explant^−1] […]” value in data set [5] (20 μM in MS medium) and in data set [5] (30 μM in MS medium) were 1.8 ± 0.48bc explant^−1 and 2.2 ± 0.32b explant^−1, respectively. In the data set on Herpes simplex virus, the “activity in killing Herpes simplex virus” value was “No effect”. Also, the Morphogenesis in vitro result in data set [5] (5 μM in MS medium) was “Green shoots”; in data set [5] (10 μM in MS medium), “Green shoots”; in data set [5] (20 μM in MS medium), “Pale green shoots”; in data set [5] (30 μM in MS medium) it was “Pale green shoots”.
With `OC[C@H]1OC(n2cnc3c(NCc4ccco4)ncnc32)[C@H](O)[C@@H]1O` (stereo partly drawn) [6-furfurylamino-9-ribosylpurine], the “toxicity in the MTT test” value in data set [1] (72 hour treatment) is “toxic”.

A word on the IC50: it is the concentration needed to halve the response being measured. Low readings indicate greater potency in that assay, high ones weaker potency in that assay.
